Assays:
Assay type in all cases: cell-based, mouse
[1] = test system: Ucp1; test: Gene expression by qPCR in immortalized brown adipocytes
Description: Primary brown adipocytes were isolated according to known methods. An established mouse brown adipocyte cell line was obtained from Dr. Bruce Spiegelman (Dana-Farber Cancer Institute, Boston, USA). To differentiate primary and immortalized brown adipocytes, cells were grown until confluency in DMEM containing 10% FBS, 25 mM glucose 1 mM pyruvate, 2 mM glutamine, 20 nM insulin, 1 nM T3, and antibiotics. Once confluent (day 0), differentiation was induced by supplementing the medium with 0.5 mM IBMX, 0.5 μM dexamethasone, and 0.125 mM indomethacin, for 2 days. Differentiation was continued in the original medium (without IBMX, dexamethasone and indomethacin) for 7-10 days.
TScreening was conducted at the UCLA Molecular Screening Shared Resource using automated instruments Immortalized brown adipocytes were differentiated in T225 flasks and plated in Matrix 384-well plates (26,000 cells per well) with white flat bottom (ThermoScientific) using trypsin and collagenase type II (Sigma C6885). The small molecule libraries screened were a BioMol library (204 compounds), an FDA-approved drug library (1120 compounds), a Microsource spectrum collection (2000 compounds), and a druggable compound set (8000 compounds). Molecules were delivered at 10 μM final concentration in DMSO. The screen was performed in duplicate on different days. After 18 h, luciferase activity was measured with Bright-Glo luciferase assay system and an LJL instrument. Data were normalized to the basal response (100% activity) in the presence of DMSO. Following the primary screen, 92 molecules were selected for validation and used to treat brown adipocyte cells plated in a 96-well plate overnight. RNA was extracted with an SV 96 Total RNA Isolation System (Promega). Compounds used for follow-up studies were identified using search tools available from Molport (molport.com), and ordered from the same company.
RNA levels were measured by qPCR according to known methods. Briefly, RNA was extracted with TRIzol (Invitrogen) and reverse transcribed with iScript (Bio-Rad). Real-time PCR analysis was performed with a CFX Connect (Bio-Rad).
Mouse RNA levels were measured by qPCR according to known methods. Data were normalized to B2m and Tbp reference genes. Human RNA was extracted using an RNA Mini Plus kit (Zymo) and gene expression determined by Taqman assay. The 1-step qPCR was run on a QuantStudio 12K Flex Real Time PCR System (ThermoFisher) using the following protocol: 50° C. for 5 minutes, 95° C. for 20 seconds, 40 cycles of 95° C. for 15 seconds and 60° C. for 60 seconds. Data were normalized to PPIA and PSMB2 reference genes. For global gene expression analysis, RNA isolated from brown adipocytes treated with compounds as indicated (four biological replicates) was hybridized to Illumina mouse Ref 8 V2.0 bead chips at the University of California, Los Angeles Neuroscience Genomics Core as previously described. Data were processed with GenomeStudio V2011.1 using the quantile normalization, background subtraction, and a present call of P<0.05.

[2] = test system: PKA; test: PKA activity ELISA, brown adipocytes treated overnight; conditions: immortalized brown adipocytes, 10 μM
Description: PKA kinase activity was measured with an ELISA that utilized a synthetic peptide as substrate for PKA and a polyclonal antibody that recognizes the phosphorylated form of the substrate (ab139435, Abcam). PKA activity was measured in lysates from cultured brown adipocytes, mouse BAT, or liver. Cells and tissues were lysed in 20 mM MOPS, 5 mM EGTA, 2 mM EDTA, and 0.1% Triton X-100 supplemented with protease and phosphatase inhibitor as described above. Protein concentration was determined by Bradford assay and 10 μg of cells, 0.25 μg of BAT extract, or 0.5 μg of liver extract were assessed for PKA activation according to the manufacturer's instruction, with minor changes. Briefly, vehicle or Z160 was incubated with brown adipocyte cells overnight or with protein lysates for 30 min, followed by one wash before the primary antibody, 60 min incubation with the primary antibody, 30 min incubation with the secondary antibody, and by 10 min washing. Absorbance was measured after the substrate was added for 20-60 min, depending the intensity of the signal.

[3] = test system: phospho-(Ser/Thr) PKA substrate; test: Phosphorylation of PKA substrates by Western blot in brown adipocytes; conditions: overnight, 10 μM
Description: Cells and tissues were lysed in 10 mM Tris pH 7.5, 10 mM NaCl, 1 mM EDTA and 0.5% Triton X-100, supplemented with complete mini EDTA-free protease (Roche Diagnostics) and phosphatase (Cocktail 2 and 3, Sigma) inhibitors, followed by 10 second sonication. For analysis of mitochondrial proteins, mitochondria were isolated from cells by dual centrifugation, as described. Protein lysates were separated by SDS-PAGE and transferred to a nitrocellulose membrane. Transfer was confirmed by Ponceau staining (P7170, Sigma). After blocking in 5% milk, 0.1% Tween-20 in Tris-buffered saline (TBS), primary antibody was incubated overnight at 4° C. in 5% bovine serum albumin and 0.1% Tween-20 in TBS. Primary antibodies against ACTB (GTX109639, GeneTex), AKAP1 (5203, Cell Signaling), AKAP6 (07-087, Millipore), Cytochrome c (136F3, Cell Signaling), electron transport chain protein complexes (Total OXPHOS rodent WB antibody cocktail ab110413, Abcam), GAPDH (GTX100118, Genetex), active p38 MAPK (V1211, Promega), total p38 MAPK (8690, Cell Signaling), PGC1α (AB3242, Millipore), phospho-(Ser/Thr) PKA substrate (9621, Cell Signaling), PKA C-α (4782, Cell Signaling), PKA RII-β (ab75993, Abcam), and UCP1 (662045, Calbiochem) were used at 1:2000. […] Quantification using representative bands from the Ponceau staining was performed with ImageJ.

[4] = immortalized brown adipocytes, 10 μM

Compound	Ucp1 expression induction ([1]; 1 μM compared with 10 μM)	duration of effect on Ucp1 expression ([1]; 10 μM)	earliest time at which effect on Ucp1 expression was observed ([1]; 10 μM) [h]	expression of markers of brown adipocyte identity, mitochondrial function and fatty acid oxidation genes [1, 4]	concentration of optimal Ucp1 expression induction ([1]; titration, overnight treatment) [µM]	PKA activity [2]	phosphorylation of PKA substrates [3]	potency on Ucp1 induction compared with AST070 ([1]; 10 μM)	expression of lipolytic enzymes (Atgl, Hsl) and FGF21 at the mRNA level ([1]; immortalized brown adipocytes, 10 μM overnight)
O=C(CSc1nc2ccccc2c(=O)[nH]1)Nc1ccc2c(c1)OCCO2 [AST070, N-(2,3-dihydro-1,4-benzodioxin-6-yl)-2-[(4-oxo-3,4-dihydroquinazolin-2-yl)sulfanyl]acetamide]	lower induction	at least 24 h	5	promoted expression	10	significantly increased	increased the levels of phosphorylation	–	–
COc1ccc(NC(=O)CSc2nc3ccccc3c(=O)[nH]2)c(OC)c1 [Z160]	–	–	–	promoted expression	–	significantly increased	increased the levels of phosphorylation	greater potency than AST070	increased expression
